Source: patent publication US7521596B2, “Method for controlling weeds” (Sumitomo Chemical Company, Limited, priority 2004, dated 2009)

How the values were obtained:
[1] = system: recombinant tobacco line 1609soy#25 (cytochrome P450 of SEQ ID NO: 1 introduced); test: Spray test of the present herbicidal compound, recombinant tobacco line 1609soy#25; type: in vivo, Nicotinia tabacum; conditions: score 0 (died) to 3; for average phytotoxicity score (sensitivity to carfentrazone-ethyl): applied as AIM HERBICIDE dry flowable; for average phytotoxicity score (sensitivity to flufenpyr-ethyl): about 2 weeks after spraying, average of 4 individuals
Experimental: (§1) Seeds of the homozygote lines selected in Example 4 (seeds of lines #17 and #25 of the recombinant tobacco to which plasmid pBI-NdG6-rSt-1609soy has been introduced, and seeds of the line 1584soy#16 of the recombinant tobacco to which plasmid pBI-NdG6-rSt-1584soy has been introduced) were aseptically seeded on MS agar medium containing 100 mg/L kanamycin. Also, seeds of the wild-type tobacco line SR-1 were aseptically seeded on MS agar medium. After about 2 weeks, germinated seedlings were observed.
(§2) Germinated individuals were transplanted to growing pots containing horicultural soil (Kureha Engei Baido manufactured by Kureha Chemical Industry Co., Ltd.), acclimated to the external environment in a growth chamber, then grown for about 2 weeks at 23° C., 23 hours of day length in a growth chamber. Thus obtained plants were applied to the spray test of the present herbicidal compound, flufenpyr-ethyl.
(§3) Flufenpyr-ethyl was dissolved in Solvesso cocktail mixed Solvesso 200 (manufactured by Valent) and Sorpol 3816 (manufactured Sumitomo Chemical Co., Ltd.) at the ratio of 87.5:10 such that flufenpyr-ethyl was respectively contained 0.89 mg or 1.78 mg in 0.5 mL Solvesso cocktail. The spray liquid of flufenpyr-ethyl was prepared as the aqueous solution containing the Solvesso cocktail of 2.5% concentration in which the compound was dissolved and Agri dex of 1% concentration (manufactured by Valent) as adjuvant.
(§4) Spray of the spray liquid to the plant above described was carried out, by using running automatic spray machine (manufactured by Nambasekkei), such that spray liquid 20 mL was sprayed to the recombinant tobacco seedlings put at 0.9 square meter of the sprayed area in a uniform way. After about 2 weeks, the sensitivity of the applied recombinant tobacco line to flufenpyr-ethyl was compared to the sensitivity of the wild-type tobacco line SR-1 to flufenpyr-ethyl. In the above spray test, 4 individuals of the recombinant tobacco were used with respect to each applied amount of flufenpyr-ethyl. The sensitivity of the recombinant tobacco to flufenpyr-ethyl was decided by scoring it based on the index below, and calculating the average of the score of 4 individuals with respect to each recombinant tobacco line and applied amount for it. The same spray test of wild-type line SR-1 was carried out as a negative control.
(§5) <Scoring Index Based on the Degree of Phytotoxicity as Dying of the Individual and Browning or Whitening of the Leaves or Stems Caused by Compound Spraying>
(§6) As to the homozygote line 1609soy#25 selected in Example 4 from among the recombinant tobacco lines to which a DNA having a nucleotide sequence encoding the amino acid sequence of SEQ ID NO: 1 has been introduced, and the wild-type tobacco line SR-1, their sensitivities to the compound (I), carfentrazone-ethyl and sulfentrazone were investigated according to the method described in Example 5 (evaluation by scoring index based on the degree of phytotoxicity as dying of the individual and browning or whitening of the leaves or stems caused by compound spraying). […]

[2] = system: wild-type soybean line (cv. Jack); test: Spray test of the present herbicidal compound, wild-type soybean (negative control); type: in vivo; conditions: sprayed 21st day after seeding, scored 2 weeks after spraying, score 0 (died) to 3
Experimental: (§7) Seeds of these lines were seeded and grown in growing pots containing horicultural soil (Kureha Engei Baido manufactured by Kureha Chemical Industry Co. Ltd.) When trifoliate leaves were developed after germination, the seedlings were transplanted to growing pots containing the soil prepared by mixing equal amount of the Kureha Engei Baido and field soil, and then grown in a greenhouse according to the method of Example 17 of WO0304370 to obtain seeds of T2 generation of each line. Among the obtained T2 generations, seeds of T2 generation of the line J18 (seeds of the recombinant soybean) were seeded in growing pots containing horicultural sail (Kureha Engei Baido manufactured by Kureha Chemical Industry Co., Ltd.) and grown. According to the above method described in Example 5, it was sprayed carfentrazone-ethyl to the seedling on the 21st day after seeding, and compared the sensitivity to carfentrazone-ethyl of the recombinant soybean with the sensitivity to carfentrazone-ethyl of wild-type soybean line (cv. Jack) at 2 weeks after spraying. The spray liquid of the above herbicidal compound was prepared as follows.
(§8) The spray liquid was prepared by diluting dry flowable preparation of carfentrazone-ethyl (AIM™ HERBICIDE manufactured by FMC, containing 40% (w/w) of carfentrazone-ethyl) with Agri dex (manufactured by Valent) 1% aqueous solution to be contained 1.79 mg, 3.57 mg or 7.14 mg of carfentrazone-ethyl in the spray liquid.
(§9) The sensitivity of the recombinant soybean to carfentrazone-ethyl was decided by scoring it based on the index below, and calculating the average of the scores with respect to each recombinant soybean line and applied amount for it. The same spray test of the wild-type soybean line (cv. Jack) was carried out as a negative control.
as §5

[3] = system: wild-type tobacco line SR-1; test: Spray test of the present herbicidal compound, wild-type tobacco (negative control); type: in vivo, Nicotinia tabacum; conditions: wild type SR-1, score 0 (died) to 3; for average phytotoxicity score (sensitivity to carfentrazone-ethyl): applied as AIM HERBICIDE dry flowable; for average phytotoxicity score (sensitivity to flufenpyr-ethyl): about 2 weeks after spraying, average of 4 individuals
Experimental: as §1, §2, §3, §4, §5, §6

[4] = system: recombinant soybean line J18 (cytochrome P450 of SEQ ID NO: 1 introduced); test: Spray test of the present herbicidal compound, recombinant soybean line J18; type: in vivo; conditions: for average phytotoxicity score (sensitivity to carfentrazone-ethyl): J18 (T2 generation), sprayed 21st day after seeding, scored 2 weeks after spraying, score 0 (died) to 3
Experimental: as §7, §8, §9, §5

[5] = system: recombinant tobacco line 1609soy#17 (cytochrome P450 of SEQ ID NO: 1 introduced); test: Spray test of the present herbicidal compound, recombinant tobacco line 1609soy#17; type: in vivo, Nicotinia tabacum; conditions: about 2 weeks after spraying, average of 4 individuals, score 0 (died) to 3
Experimental: as §1, §2
(§10) Flufenpyr-ethyl was dissolved in Solvesso cocktail mixed Solvesso 200 (manufactured by Valent) and Sorpol 3816 (manufactured Sumitomo Chemical Co., Ltd.) at the ratio of 87.5:10 such that flufenpyr-ethyl was respectively contained 0.89 mg or 1.78 mg in 0.5 mL Solvesso cocktail. […]

[6] = system: recombinant tobacco line 1584soy#16 (cytochrome P450 of SEQ ID NO: 2 introduced); test: Spray test of the present herbicidal compound, recombinant tobacco line 1584soy#16; type: in vivo, Nicotinia tabacum; conditions: about 2 weeks after spraying, average of 4 individuals, score 0 (died) to 3
Experimental: as §1, §2, §10

CCOC(=O)C(Cl)Cc1cc(-n2nc(C)n(C(F)F)c2=O)c(F)cc1Cl (stereo not drawn) [carfentrazone-ethyl]
average phytotoxicity score (sensitivity to carfentrazone-ethyl) ([1]; 0.446 mg/20 mL spray liquid): 2.5 | average phytotoxicity score (sensitivity to carfentrazone-ethyl) ([1]; 0.893 mg/20 mL spray liquid): 1.8 | average phytotoxicity score (sensitivity to carfentrazone-ethyl) ([1]; 4.46 mg/20 mL spray liquid): 1.5 | average phytotoxicity score (sensitivity to carfentrazone-ethyl) ([2]; 1.79 mg/20 mL spray liquid): 1.0 | average phytotoxicity score (sensitivity to carfentrazone-ethyl) ([2]; 3.57 mg/20 mL spray liquid): 0.9 | average phytotoxicity score (sensitivity to carfentrazone-ethyl) ([2]; 7.14 mg/20 mL spray liquid): 0.3 | average phytotoxicity score (sensitivity to carfentrazone-ethyl) ([3]; 0.446 mg/20 mL spray liquid): 1.0 | average phytotoxicity score (sensitivity to carfentrazone-ethyl) ([3]; 0.893 mg/20 mL spray liquid): 0.0 | average phytotoxicity score (sensitivity to carfentrazone-ethyl) ([3]; 4.46 mg/20 mL spray liquid): 0.0 | average phytotoxicity score (sensitivity to carfentrazone-ethyl) ([4]; 1.79 mg/20 mL spray liquid): 1.8 | average phytotoxicity score (sensitivity to carfentrazone-ethyl) ([4]; 3.57 mg/20 mL spray liquid): 1.4 | average phytotoxicity score (sensitivity to carfentrazone-ethyl) ([4]; 7.14 mg/20 mL spray liquid): 0.9 | phytotoxicity / resistance as compared to the wild-type plant cv. Jack ([4]; line J18, 1.79, 3.57 or 7.14 mg in the spray liquid): the phytotoxicity was reduced and remarkable improvement of the resistance was recognized

CCOC(=O)COc1cc(-n2ncc(C(F)(F)F)c(C)c2=O)c(F)cc1Cl [flufenpyr-ethyl]
average phytotoxicity score (sensitivity to flufenpyr-ethyl) ([1]; 0.89 mg/20 mL spray liquid): 3.0 | average phytotoxicity score (sensitivity to flufenpyr-ethyl) ([1]; 1.78 mg/20 mL spray liquid): 3.0 | average phytotoxicity score (sensitivity to flufenpyr-ethyl) ([5]; 0.89 mg/20 mL spray liquid): 3.0 | average phytotoxicity score (sensitivity to flufenpyr-ethyl) ([5]; 1.78 mg/20 mL spray liquid): 3.0 | average phytotoxicity score (sensitivity to flufenpyr-ethyl) ([6]; 0.89 mg/20 mL spray liquid): 3.0 | average phytotoxicity score (sensitivity to flufenpyr-ethyl) ([6]; 1.78 mg/20 mL spray liquid): 3.0 | average phytotoxicity score (sensitivity to flufenpyr-ethyl) ([3]; 0.89 mg/20 mL spray liquid): 1.7 | average phytotoxicity score (sensitivity to flufenpyr-ethyl) ([3]; 1.78 mg/20 mL spray liquid): 0.0
